Experiment: Solubility of formulations for in vivo analysis (visual observation)
Assay type: physicochemical
Excerpt: Cannabidiol (CBD) and hydroxychloroquine (HCQ), were purchased by Pharmacology Discovery Services Taiwan, Ltd. The formulations are summarised in Table 3.

C[C@@H]1C[C@H]2[C@@H]3CCC4=CC(=O)C=C[C@]4(C)[C@@]3(F)[C@@H](O)C[C@]2(C)[C@@]1(O)C(=O)CO [Dexamethasone]
Solubil.: I

From patent US20230128114A1, “METHODS AND COMPOSITIONS FOR TREATING OR PREVENTING AN INFLAMMATORY CONDITION” (priority 2020, published 2023)
